# Molecular target: ROCK2 (Homo sapiens (Human), UniProt O75116)
# Assay: Rho Kinase Inhibition Assay (IMAP fluorescence polarization)
# Format: biochemical
# Conditions: isolated enzyme, 10 μM ATP, 60 minutes at room temperature
# Protocol: Following the preincubation, 10 μM ATP was added to initiate the reaction. After 60 minutes at room temperature, Molecular Devices IMAP™ binding solution was added to bind phosphorylated substrate. After 30 minutes of incubation in the presence of the IMAP™ beads the fluorescence polarization was read and the ratio was reported as mP. IC50 results were calculated using the Prism software from Graphpad.
# See Tian et al., Arch. Ophthalmol. […] Ophthalmol. Vis. […] Ophthalmol. […] Cytoskel. […] Ophthalmol. Vis. […] Ophthalmol. Vis.
# Sequence of ROCK2 (O75116 11-552): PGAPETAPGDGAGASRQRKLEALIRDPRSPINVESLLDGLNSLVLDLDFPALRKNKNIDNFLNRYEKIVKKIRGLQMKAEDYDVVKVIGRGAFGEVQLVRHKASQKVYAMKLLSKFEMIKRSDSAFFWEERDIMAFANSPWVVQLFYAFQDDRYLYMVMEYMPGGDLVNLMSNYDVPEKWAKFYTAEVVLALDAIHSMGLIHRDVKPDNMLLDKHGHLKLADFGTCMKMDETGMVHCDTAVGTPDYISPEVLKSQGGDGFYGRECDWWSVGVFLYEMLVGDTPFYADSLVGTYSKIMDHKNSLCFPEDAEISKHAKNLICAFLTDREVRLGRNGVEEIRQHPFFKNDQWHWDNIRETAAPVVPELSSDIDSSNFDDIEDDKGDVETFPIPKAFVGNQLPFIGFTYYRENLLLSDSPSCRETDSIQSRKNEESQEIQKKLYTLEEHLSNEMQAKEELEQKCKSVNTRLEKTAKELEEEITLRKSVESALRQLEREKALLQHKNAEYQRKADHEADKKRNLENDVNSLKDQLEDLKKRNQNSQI
row,SMILES,IC50 [nM]
1,"COc1ccc(CN2CCC[C@H](Nc3ccc4[nH]ncc4c3)C2)cc1 [Compound 1.079, (S)-N-(1-(4-methoxybenzyl)piperidin-3-yl)-1H-indazol-5-amine]",102
2,"OCCn1ccc2ccc(CN3CCC[C@@H](Nc4ccc5[nH]ncc5c4)C3)cc21 [Compound 1.108, (R)-2-(6-((3-(1H-indazol-5-ylamino)piperidin-1-yl)methyl)-1H-indol-1-yl)ethanol]",367
3,"CS(=O)(=O)Nc1cccc(CN2CCC(Nc3ccc4[nH]ncc4c3)C2)c1 (centres unmarked) [Compound 1.087, N-(3-((3-(1H-indazol-5-ylamino)pyrrolidin-1-yl)methyl)phenyl)methanesulfonamide]",280
4,"CN(C)c1ccc(CN2CCCC(Nc3ccc4[nH]ncc4c3)C2)cc1 (centres unmarked) [Compound 1.032, N-(1-(4-(dimethylamino)benzyl)piperidin-3-yl)-1H-indazol-5-amine]",1940
5,"C#Cc1ccc(CN2CC[C@@H](Nc3cccc4cnccc34)C2)cc1 [Compound 2.031, (R)-N-(1-(4-ethynylbenzyl)pyrrolidin-3-yl)isoquinolin-5-amine]",87.1
6,"Nc1cc(CN2CCCC(Nc3ccc4[nH]ncc4c3)C2)ccc1Cl (centres unmarked) [Compound 1.089, N-(1-(3-amino-4-chlorobenzyl)piperidin-3-yl)-1H-indazol-5-amine]",29.4
7,"Nc1n[nH]c2ccc(NC3CCCN(Cc4ccccc4)C3)cc12 (centres unmarked) [Compound 1.050, N5-(1-benzylpiperidin-3-yl)-1H-indazole-3,5-diamine]",1040
8,"CSc1ccc(CN2CCC[C@H](Nc3ccc4[nH]ncc4c3)C2)cc1 [Compound 1.075, (S)-N-(1-(4-(methylthio)benzyl)piperidin-3-yl)-1H-indazol-5-amine]",74.5
9,"NC(=O)Cn1ccc2cc(CN3CCCC(Nc4ccc5[nH]ncc5c4)C3)ccc21 (centres unmarked) [Compound 1.105, 2-(5-((3-(1H-indazol-5-ylamino)piperidin-1-yl)methyl)-1H-indol-1-yl)acetamide]",172
10,"OCCOc1cccc(CN2CC[C@H](Nc3ccc4[nH]ncc4c3)C2)c1 [Compound 1.094, (S)-2-(3-((3-(1H-indazol-5-ylamino)pyrrolidin-1-yl)methyl)phenoxy)ethanol]",466
11,"OCCOc1cccc(CN2CC[C@H](Nc3cccc4cnccc34)C2)c1 [Compound 2.032, (S)-2-(3-((3-(isoquinolin-5-ylamino)pyrrolidin-1-yl)methyl)phenoxy)ethanol]",5330
12,"c1cc(SC2CC2)ccc1CN1CCCC(Nc2ccc3[nH]ncc3c2)C1 (centres unmarked) [Compound 1.026, N-(1-(4-(cyclopropylthio)benzyl)piperidin-3-yl)-1H-indazol-5-amine]",2130
13,"c1cc(N[C@H]2CCN(Cc3ccc(C4CC4)cc3)C2)c2ccncc2c1 [Compound 2.019, (S)-N-(1-(4-cyclopropylbenzyl)pyrrolidin-3-yl)isoquinolin-5-amine]",4080
14,"c1ccc(CN2CCCC(Nc3ccc4[nH]ncc4c3)CC2)cc1 (centres unmarked) [Compound 1.031, N-(1-benzylazepan-4-yl)-1H-indazol-5-amine]",1750
15,"C[C@@H](O)COc1cccc(CN2CCC[C@@H](Nc3ccc4[nH]ncc4c3)C2)c1 [Compound 1.116, (R)-1-(3-(((R)-3-(1H-indazol-5-ylamino)piperidin-1-yl)methyl)phenoxy)propan-2-ol]",862
16,"CCS(=O)(=O)Nc1cccc(CN2CCCC(Nc3ccc4[nH]ncc4c3)C2)c1 (centres unmarked) [Compound 1.120, N-(3-((3-(1H-indazol-5-ylamino)piperidin-1-yl)methyl)phenyl)ethanesulfonamide]",109
17,"CS(=O)(=O)Nc1cccc(CN2CCC[C@@H](Nc3cccc4cnccc34)C2)c1 [Compound 2.033, (R)-N-(3-((3-(isoquinolin-5-ylamino)piperidin-1-yl)methyl)phenyl)methanesulfonamide]",3060
18,"OCCOc1ccc(CN2CCCC(Nc3ccc4[nH]ncc4c3)C2)cc1 (centres unmarked) [Compound 1.018, 2-(4-((3-(1H-indazol-5-ylamino)piperidin-1-yl)methyl)phenoxy)ethanol]",2410
19,"Cc1ccc(CN2CCCC(Nc3ccc4[nH]ncc4c3)C2)cc1O (centres unmarked) [Compound 1.059, 5-((3-(1H-indazol-5-ylamino)piperidin-1-yl)methyl)-2-methylphenol]",32
20,"Cc1cccc(CN2CCCC(Nc3ccc4[nH]ncc4c3)C2)c1C (centres unmarked) [Compound 1.016, N-(1-(2,3-dimethylbenzyl)piperidin-3-yl)-1H-indazol-5-amine]",135
21,"c1cc(CN2CC[C@H](Nc3cccc4cnccc34)C2)cc(C2CC2)c1 [Compound 2.023, (S)-N-(1-(3-cyclopropylbenzyl)pyrrolidin-3-yl)isoquinolin-5-amine]",15700
22,"c1cc2ccc(CN3CCCC(Nc4ccc5[nH]ncc5c4)C3)cc2[nH]1 (centres unmarked) [Compound 1.082, N-(1-((1H-indol-6-yl)methyl)piperidin-3-yl)-1H-indazol-5-amine]",30.4

row,SMILES,IC50 [nM]
1,"NC(=O)Cn1ccc2ccc(CN3CCCC(Nc4ccc5[nH]ncc5c4)C3)cc21 (centres unmarked) [Compound 1.099, 2-(6-((3-(1H-indazol-5-ylamino)piperidin-1-yl)methyl)-1H-indol-1-yl)acetamide]",25.8
2,"OCCN1CCc2ccc(CN3CCCC(Nc4ccc5[nH]ncc5c4)C3)cc21 (centres unmarked) [Compound 1.104, 2-(6-((3-(1H-indazol-5-ylamino)piperidin-1-yl)methyl)indolin-1-yl)ethanol]",107
3,"C#Cc1ccc(CN2CCC[C@H](Nc3ccc4[nH]ncc4c3)C2)cc1 [Compound 1.077, (S)-N-(1-(4-ethynylbenzyl)piperidin-3-yl)-1H-indazol-5-amine]",53.1
4,"c1cc(N2CCCC2)ccc1CN1CCCC(Nc2ccc3[nH]ncc3c2)C1 (centres unmarked) [Compound 1.011, N-(1-(4-(pyrrolidin-1-yl)benzyl)piperidin-3-yl)-1H-indazol-5-amine]",12200
5,"CS(=O)(=O)Nc1cccc(CN2CC[C@H](Nc3cccc4cnccc34)C2)c1 [Compound 2.035, (S)-N-(3-((3-(isoquinolin-5-ylamino)pyrrolidin-1-yl)methyl)phenyl)methanesulfonamide]",3240
6,"OCCOc1cccc(CN2CCC[C@@H](Nc3cccc4cnccc34)C2)c1 [Compound 2.034, (R)-2-(3-((3-(isoquinolin-5-ylamino)piperidin-1-yl)methyl)phenoxy)ethanol]",4010
7,"C#Cc1ccc(CN2CCCC(Nc3ccc4[nH]ncc4c3)C2)cc1O (centres unmarked) [Compound 1.083, 5-((3-(1H-indazol-5-ylamino)piperidin-1-yl)methyl)-2-ethynylphenol]",7310
8,"CCSc1ccc(CN2CCCC(Nc3ccc4[nH]ncc4c3)C2)cc1 (centres unmarked) [Compound 1.017, N-(1-(4-(ethylthio)benzyl)piperidin-3-yl)-1H-indazol-5-amine]",215
9,"C[C@@H](O)COc1cccc(CN2CCC[C@H](Nc3ccc4[nH]ncc4c3)C2)c1 [Compound 1.118, (R)-1-(3-(((S)-3-(1H-indazol-5-ylamino)piperidin-1-yl)methyl)phenoxy)propan-2-ol]",1400
10,"Clc1ccc(CN2CC[C@@H](Nc3cccc4cnccc34)C2)cc1 [Compound 2.027, (R)-N-(1-(4-chlorobenzyl)pyrrolidin-3-yl)isoquinolin-5-amine]",120
11,"c1cc2cc(CN3CCCC(Nc4ccc5[nH]ncc5c4)C3)ccc2[nH]1 (centres unmarked) [Compound 1.100, N-(1-((1H-indol-5-yl)methyl)piperidin-3-yl)-1H-indazol-5-amine]",42.9
12,"CS(=O)(=O)Nc1cccc(CN2CCC[C@@H](Nc3ccc4[nH]ncc4c3)C2)c1 [Compound 1.093, (R)-N-(3-((3-(1H-indazol-5-ylamino)piperidin-1-yl)methyl)phenyl)methanesulfonamide]",101
13,"c1cc(N2CCOCC2)ccc1CN1CCCC(Nc2ccc3[nH]ncc3c2)C1 (centres unmarked) [Compound 1.012, N-(1-(4-morpholinobenzyl)piperidin-3-yl)-1H-indazol-5-amine]",12200
14,"O=C(O)COc1cccc(CN2CCC[C@@H](Nc3ccc4[nH]ncc4c3)C2)c1 [Compound 1.125, (R)-2-(3-((3-(1H-indazol-5-ylamino)piperidin-1-yl)methyl)phenoxy)acetic acid]",879
15,"Clc1ccc(CN2CCC(Nc3ccc4[nH]ncc4c3)C2)cc1Cl (centres unmarked) [Compound 1.062, N-(1-(3,4-dichlorobenzyl)pyrrolidin-3-yl)-1H-indazol-5-amine]",155
16,"Cc1cccc(CN2CCCC(Nc3ccc4[nH]ncc4c3)C2)c1 (centres unmarked) [Compound 1.066, N-(1-(3-methylbenzyl)piperidin-3-yl)-1H-indazol-5-amine]",232
17,"CCOc1cccc(CN2CCCC(Nc3ccc4[nH]ncc4c3)C2)c1 (centres unmarked) [Compound 1.065, N-(1-(3-ethoxybenzyl)piperidin-3-yl)-1H-indazol-5-amine]",326
18,"C#Cc1cccc(CN2CCCC(Nc3ccc4[nH]ncc4c3)C2)c1 (centres unmarked) [Compound 1.047, N-(1-(3-ethynylbenzyl)piperidin-3-yl)-1H-indazol-5-amine]",57
19,"N#Cc1cccc(CN2CCC(Nc3cccc4cnccc34)C2)c1 (centres unmarked) [Compound 2.007, 3-((3-(isoquinolin-5-ylamino)pyrrolidin-1-yl)methyl)benzonitrile]",3620
20,"c1cc2cc(CN3CCCC(Nc4ccc5[nH]ncc5c4)C3)ccc2s1 (centres unmarked) [Compound 1.054, N-(1-(benzo[b]thiophen-5-ylmethyl)piperidin-3-yl)-1H-indazol-5-amine]",132
21,"N#Cc1ccc(CN2CCCC(Nc3ccc4[nH]ncc4c3)C2)cc1 (centres unmarked) [Compound 1.038, 4-((3-(1H-indazol-5-ylamino)piperidin-1-yl)methyl)benzonitrile]",2760
22,"Cc1ccc(CN2CCC[C@H](Nc3ccc4[nH]ncc4c3)C2)cc1 [Compound 1.078, (S)-N-(1-(4-methylbenzyl)piperidin-3-yl)-1H-indazol-5-amine]",63.1

# — patent US8604218B2, “Cytoskeletal active rho kinase inhibitor compounds, composition and use” (Inspire Pharmaceuticals, Inc., priority 2006, dated 2013)
